Assay results: ChEMBL document CHEMBL5465560, “Selectivity Literature for EUbOPEN Chemogenomic Library” (2024)

Columns and labels:
[1] = target: T1, Dual specificity mitogen-activated protein kinase kinase 4 (Homo sapiens) (UniProt P45985); experiment: Selectivity interaction (Kinase panel (DSF assay)) EUB0001558a MAP2K4
T1 sequence (whole entry): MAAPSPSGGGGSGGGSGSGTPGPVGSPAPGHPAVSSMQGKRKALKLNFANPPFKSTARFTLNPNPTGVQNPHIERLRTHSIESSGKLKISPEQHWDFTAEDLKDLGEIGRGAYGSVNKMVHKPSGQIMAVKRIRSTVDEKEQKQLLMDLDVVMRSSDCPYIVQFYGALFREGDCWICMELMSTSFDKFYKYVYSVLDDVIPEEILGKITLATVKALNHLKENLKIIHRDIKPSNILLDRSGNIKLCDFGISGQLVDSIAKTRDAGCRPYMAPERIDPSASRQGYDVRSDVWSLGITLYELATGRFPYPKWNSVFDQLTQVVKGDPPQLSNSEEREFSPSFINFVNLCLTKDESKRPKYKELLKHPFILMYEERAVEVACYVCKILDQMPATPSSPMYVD

[2] = target: Serine/threonine-protein kinase Chk2 (Homo sapiens) (UniProt O96017); experiment: Selectivity interaction (KinomeScan (DiscoverX)) EUB0000229b CHEK2; conditions: at 10 µM
Sequence of Serine/threonine-protein kinase Chk2 (Homo sapiens) (O96017 whole entry): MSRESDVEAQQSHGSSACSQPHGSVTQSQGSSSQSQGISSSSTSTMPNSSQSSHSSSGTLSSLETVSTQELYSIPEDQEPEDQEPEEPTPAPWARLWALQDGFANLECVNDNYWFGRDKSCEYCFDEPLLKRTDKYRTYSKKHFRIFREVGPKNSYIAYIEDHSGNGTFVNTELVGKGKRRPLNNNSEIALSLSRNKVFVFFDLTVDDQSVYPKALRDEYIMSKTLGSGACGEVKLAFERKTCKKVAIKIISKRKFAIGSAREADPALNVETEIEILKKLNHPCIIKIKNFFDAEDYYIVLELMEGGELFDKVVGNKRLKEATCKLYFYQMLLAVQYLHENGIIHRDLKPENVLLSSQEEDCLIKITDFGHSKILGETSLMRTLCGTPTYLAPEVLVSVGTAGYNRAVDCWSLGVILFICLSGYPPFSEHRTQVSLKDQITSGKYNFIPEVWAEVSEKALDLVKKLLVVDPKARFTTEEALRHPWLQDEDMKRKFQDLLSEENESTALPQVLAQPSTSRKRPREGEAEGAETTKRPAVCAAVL

[3] = target: T2, Ephrin type-B receptor 4 (Homo sapiens) (UniProt P54760); experiment: Selectivity interaction (Upstate Kinase Profiler service (Millipore)) EUB0000056c EPHB4; conditions: at 1 µM
T2 sequence (whole entry): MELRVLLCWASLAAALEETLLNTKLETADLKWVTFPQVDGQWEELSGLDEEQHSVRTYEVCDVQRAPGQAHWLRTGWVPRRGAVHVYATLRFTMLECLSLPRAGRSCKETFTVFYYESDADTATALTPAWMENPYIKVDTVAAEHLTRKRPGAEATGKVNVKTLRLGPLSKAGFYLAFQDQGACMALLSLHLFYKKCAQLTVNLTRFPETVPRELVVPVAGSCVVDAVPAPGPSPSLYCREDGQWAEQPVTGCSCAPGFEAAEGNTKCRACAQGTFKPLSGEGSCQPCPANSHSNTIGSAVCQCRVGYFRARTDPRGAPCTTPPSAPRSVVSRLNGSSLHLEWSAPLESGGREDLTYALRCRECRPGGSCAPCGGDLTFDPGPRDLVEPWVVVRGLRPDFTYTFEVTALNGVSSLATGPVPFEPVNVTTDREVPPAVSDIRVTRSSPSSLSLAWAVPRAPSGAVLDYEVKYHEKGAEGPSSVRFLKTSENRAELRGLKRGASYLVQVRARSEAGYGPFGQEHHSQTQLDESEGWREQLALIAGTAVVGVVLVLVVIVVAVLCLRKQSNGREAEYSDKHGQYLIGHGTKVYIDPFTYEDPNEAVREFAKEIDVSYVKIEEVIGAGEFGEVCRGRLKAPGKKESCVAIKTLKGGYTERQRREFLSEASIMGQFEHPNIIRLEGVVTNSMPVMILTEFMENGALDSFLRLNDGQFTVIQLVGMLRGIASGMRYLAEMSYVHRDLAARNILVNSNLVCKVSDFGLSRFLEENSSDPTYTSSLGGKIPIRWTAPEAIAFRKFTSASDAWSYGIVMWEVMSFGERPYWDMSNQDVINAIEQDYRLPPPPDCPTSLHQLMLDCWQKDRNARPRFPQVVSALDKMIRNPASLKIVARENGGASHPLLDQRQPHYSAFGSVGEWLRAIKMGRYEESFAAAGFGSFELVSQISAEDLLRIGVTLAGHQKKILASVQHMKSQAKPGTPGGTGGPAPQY

[4] = target: Calcium/calmodulin-dependent protein kinase kinase 1 (Homo sapiens) (UniProt Q8N5S9); experiment: Selectivity interaction (KinomeScan (DiscoverX)) EUB0000655a CAMKK1; conditions: at 10 µM
Sequence of Calcium/calmodulin-dependent protein kinase kinase 1 (Homo sapiens) (Q8N5S9 whole entry, looked up): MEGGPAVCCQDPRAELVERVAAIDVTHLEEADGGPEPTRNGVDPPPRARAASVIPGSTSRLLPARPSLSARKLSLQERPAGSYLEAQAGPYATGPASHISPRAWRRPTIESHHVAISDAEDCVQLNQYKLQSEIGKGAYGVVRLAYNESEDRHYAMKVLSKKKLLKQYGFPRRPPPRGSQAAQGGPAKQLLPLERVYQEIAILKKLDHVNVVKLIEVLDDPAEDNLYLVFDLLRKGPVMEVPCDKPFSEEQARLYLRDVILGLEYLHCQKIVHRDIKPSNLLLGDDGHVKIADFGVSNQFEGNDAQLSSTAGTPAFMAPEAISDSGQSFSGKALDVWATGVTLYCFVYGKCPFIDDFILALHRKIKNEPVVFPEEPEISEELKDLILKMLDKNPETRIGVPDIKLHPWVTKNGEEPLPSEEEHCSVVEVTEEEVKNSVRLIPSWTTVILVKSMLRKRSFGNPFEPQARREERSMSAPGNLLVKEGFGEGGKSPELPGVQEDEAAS

[5] = target: T3, Serine/threonine-protein kinase Nek9 (Homo sapiens) (UniProt Q8TD19); experiment: Selectivity interaction (KinomeScan (DiscoverX)) EUB0001079a NEK9; conditions: at 1 µM
T3 sequence (whole entry): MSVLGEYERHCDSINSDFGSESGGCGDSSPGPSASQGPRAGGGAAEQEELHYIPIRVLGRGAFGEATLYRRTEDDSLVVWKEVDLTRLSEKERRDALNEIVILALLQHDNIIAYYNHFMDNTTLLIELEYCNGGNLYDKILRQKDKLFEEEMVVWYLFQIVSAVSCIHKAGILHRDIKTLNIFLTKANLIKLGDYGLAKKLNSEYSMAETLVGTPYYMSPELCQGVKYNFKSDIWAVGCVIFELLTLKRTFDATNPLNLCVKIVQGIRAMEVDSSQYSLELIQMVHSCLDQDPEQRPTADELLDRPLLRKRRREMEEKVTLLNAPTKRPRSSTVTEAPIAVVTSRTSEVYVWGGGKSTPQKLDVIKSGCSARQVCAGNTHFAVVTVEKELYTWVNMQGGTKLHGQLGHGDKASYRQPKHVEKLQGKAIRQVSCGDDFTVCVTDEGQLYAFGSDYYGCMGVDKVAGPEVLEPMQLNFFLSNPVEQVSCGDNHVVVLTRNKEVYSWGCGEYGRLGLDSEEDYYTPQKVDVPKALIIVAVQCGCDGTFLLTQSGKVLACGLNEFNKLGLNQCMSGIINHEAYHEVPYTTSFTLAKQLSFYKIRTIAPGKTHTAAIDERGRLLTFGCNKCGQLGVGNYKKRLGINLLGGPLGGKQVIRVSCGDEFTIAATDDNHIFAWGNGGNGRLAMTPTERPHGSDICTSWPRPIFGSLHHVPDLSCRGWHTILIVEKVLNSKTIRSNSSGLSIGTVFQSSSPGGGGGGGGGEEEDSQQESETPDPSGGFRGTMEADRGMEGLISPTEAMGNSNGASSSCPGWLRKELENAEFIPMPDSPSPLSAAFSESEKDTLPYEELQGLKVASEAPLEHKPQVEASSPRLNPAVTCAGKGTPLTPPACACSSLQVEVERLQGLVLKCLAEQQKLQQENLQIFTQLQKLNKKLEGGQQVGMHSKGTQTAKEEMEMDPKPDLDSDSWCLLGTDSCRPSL

[6] = system: Serine/threonine-protein kinase B-raf (Homo sapiens), P15056 [V600E]; experiment: (§1) Selectivity interaction (KinomeScan (DiscoverX)) EUB0000666a BRAF; conditions: at 10 µM
Sequence of Serine/threonine-protein kinase B-raf (Homo sapiens), P15056 [V600E] (P15056 whole entry V600E): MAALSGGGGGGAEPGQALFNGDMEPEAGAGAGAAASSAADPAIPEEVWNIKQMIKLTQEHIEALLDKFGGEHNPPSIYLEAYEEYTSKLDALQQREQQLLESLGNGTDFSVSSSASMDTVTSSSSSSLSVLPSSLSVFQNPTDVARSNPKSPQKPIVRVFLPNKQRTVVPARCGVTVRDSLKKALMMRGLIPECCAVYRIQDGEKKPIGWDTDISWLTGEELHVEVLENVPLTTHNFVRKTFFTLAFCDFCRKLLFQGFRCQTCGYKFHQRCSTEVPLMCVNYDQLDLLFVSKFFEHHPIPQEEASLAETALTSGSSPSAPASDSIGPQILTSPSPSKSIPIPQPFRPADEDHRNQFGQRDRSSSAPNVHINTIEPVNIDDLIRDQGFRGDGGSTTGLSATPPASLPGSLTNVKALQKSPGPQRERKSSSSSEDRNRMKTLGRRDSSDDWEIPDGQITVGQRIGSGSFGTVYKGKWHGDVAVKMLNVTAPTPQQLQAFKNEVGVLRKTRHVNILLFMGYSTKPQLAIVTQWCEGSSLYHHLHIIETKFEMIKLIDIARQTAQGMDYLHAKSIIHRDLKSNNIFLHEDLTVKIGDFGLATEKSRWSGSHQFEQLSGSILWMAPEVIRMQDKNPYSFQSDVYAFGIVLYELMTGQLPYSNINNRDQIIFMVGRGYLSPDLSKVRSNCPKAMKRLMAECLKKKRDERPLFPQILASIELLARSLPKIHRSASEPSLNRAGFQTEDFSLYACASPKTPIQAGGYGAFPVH

[7] = target: Serine/threonine-protein kinase B-raf (Homo sapiens) (UniProt P15056); experiment: as §1; conditions: at 10 µM
Sequence of Serine/threonine-protein kinase B-raf (Homo sapiens) (P15056 whole entry): as the sequence (P15056 whole entry V600E) above, with E600V counted along it

[8] = target: Activated CDC42 kinase 1 (Homo sapiens, UniProt Q07912); experiment: Selectivity interaction (KinomeScan (DiscoverX)) EUB0000666a TNK2; conditions: at 10 µM
Sequence of Activated CDC42 kinase 1 (Q07912 whole entry, looked up): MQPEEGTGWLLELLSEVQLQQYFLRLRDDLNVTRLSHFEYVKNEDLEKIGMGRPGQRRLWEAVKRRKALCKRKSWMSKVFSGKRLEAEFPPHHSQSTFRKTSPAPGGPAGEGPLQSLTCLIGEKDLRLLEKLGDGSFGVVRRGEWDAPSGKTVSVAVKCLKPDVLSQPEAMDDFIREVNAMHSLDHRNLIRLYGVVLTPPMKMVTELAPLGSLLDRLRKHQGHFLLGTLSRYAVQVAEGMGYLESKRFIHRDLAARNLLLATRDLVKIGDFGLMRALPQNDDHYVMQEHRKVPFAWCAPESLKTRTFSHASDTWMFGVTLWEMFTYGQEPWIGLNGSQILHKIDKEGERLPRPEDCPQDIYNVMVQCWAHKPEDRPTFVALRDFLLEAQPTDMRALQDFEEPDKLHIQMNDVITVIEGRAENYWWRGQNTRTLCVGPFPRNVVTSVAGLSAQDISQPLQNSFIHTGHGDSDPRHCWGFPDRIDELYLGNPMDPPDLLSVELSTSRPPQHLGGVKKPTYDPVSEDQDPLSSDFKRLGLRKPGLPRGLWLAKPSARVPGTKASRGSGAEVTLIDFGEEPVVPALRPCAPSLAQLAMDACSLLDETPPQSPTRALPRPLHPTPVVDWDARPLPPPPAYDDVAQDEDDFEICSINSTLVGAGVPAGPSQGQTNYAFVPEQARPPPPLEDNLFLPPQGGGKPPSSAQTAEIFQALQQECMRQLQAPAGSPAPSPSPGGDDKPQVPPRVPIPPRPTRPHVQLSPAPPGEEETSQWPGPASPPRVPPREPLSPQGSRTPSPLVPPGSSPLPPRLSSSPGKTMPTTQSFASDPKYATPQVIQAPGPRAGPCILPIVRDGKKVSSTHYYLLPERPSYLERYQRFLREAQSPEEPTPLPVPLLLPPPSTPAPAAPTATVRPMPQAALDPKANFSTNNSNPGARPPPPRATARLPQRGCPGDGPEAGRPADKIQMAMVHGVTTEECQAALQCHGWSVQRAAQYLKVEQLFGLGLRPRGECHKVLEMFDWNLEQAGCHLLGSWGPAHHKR

[9] = target: Serine/threonine-protein kinase PRP4 homolog (Homo sapiens) (UniProt Q13523); experiment: Selectivity interaction (KinomeScan (DiscoverX)) EUB0000607a PRPF4; conditions: at 10 µM
Sequence of Serine/threonine-protein kinase PRP4 homolog (Homo sapiens) (Q13523 whole entry): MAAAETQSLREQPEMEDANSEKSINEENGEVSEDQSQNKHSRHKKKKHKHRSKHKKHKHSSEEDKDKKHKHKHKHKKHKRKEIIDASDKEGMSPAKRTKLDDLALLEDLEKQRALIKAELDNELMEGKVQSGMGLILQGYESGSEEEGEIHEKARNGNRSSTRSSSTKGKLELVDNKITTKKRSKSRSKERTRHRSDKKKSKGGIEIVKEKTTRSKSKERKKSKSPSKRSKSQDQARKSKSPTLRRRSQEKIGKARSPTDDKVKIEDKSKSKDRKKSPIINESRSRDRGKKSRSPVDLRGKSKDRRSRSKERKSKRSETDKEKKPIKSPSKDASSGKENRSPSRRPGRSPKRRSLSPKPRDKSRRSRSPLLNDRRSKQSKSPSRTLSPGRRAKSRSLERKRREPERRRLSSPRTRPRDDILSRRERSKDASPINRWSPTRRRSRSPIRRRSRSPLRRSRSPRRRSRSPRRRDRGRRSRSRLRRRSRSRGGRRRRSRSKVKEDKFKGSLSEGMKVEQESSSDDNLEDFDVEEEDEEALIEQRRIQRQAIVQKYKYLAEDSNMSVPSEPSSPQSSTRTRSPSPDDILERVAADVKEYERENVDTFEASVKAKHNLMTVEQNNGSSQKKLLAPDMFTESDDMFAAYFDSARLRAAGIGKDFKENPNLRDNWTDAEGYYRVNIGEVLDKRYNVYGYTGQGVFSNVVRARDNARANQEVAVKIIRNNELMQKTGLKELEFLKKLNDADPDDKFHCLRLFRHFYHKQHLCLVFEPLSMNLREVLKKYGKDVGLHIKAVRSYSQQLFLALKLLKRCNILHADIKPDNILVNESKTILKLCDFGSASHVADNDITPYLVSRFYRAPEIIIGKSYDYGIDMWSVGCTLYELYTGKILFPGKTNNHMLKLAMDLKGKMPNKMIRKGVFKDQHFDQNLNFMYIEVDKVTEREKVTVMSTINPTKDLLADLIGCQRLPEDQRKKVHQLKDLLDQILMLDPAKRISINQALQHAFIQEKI

[10] = target: G protein-coupled receptor kinase 4 (Homo sapiens) (UniProt P32298); experiment: Selectivity interaction (KinomeScan (DiscoverX)) EUB0000045b GRK4
Sequence of G protein-coupled receptor kinase 4 (Homo sapiens) (P32298 whole entry, looked up): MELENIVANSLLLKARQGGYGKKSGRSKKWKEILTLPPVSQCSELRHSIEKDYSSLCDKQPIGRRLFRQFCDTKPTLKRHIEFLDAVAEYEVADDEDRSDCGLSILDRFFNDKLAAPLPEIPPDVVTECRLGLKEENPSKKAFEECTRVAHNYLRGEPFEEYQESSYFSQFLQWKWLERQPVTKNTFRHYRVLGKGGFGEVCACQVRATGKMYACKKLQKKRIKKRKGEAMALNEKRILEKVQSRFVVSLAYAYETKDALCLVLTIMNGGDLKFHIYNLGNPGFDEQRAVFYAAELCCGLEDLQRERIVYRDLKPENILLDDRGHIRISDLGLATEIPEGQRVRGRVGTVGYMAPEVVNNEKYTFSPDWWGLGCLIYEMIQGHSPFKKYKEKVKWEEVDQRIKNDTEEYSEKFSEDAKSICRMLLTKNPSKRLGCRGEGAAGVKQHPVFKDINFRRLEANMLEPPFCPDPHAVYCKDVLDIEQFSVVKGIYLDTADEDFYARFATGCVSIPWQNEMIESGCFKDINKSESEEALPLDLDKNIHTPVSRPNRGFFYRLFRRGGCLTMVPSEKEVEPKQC

[11] = target: Tyrosine-protein kinase BTK (Homo sapiens, UniProt Q06187); experiment: Selectivity interaction (ActivX KiNativ screen (ex vivo kinase selectivity in human PBMCs)) EUB0001619a BTK; assay type: cell-based; conditions: PBMC, at 1 µM

Question: With `CC(C)(O)[C@H](F)CN1Cc2cc(NC(=O)c3cnn4cccnc34)c(N3CCOCC3)cc2C1=O` as the molecule, how does the dTM [1] read?
Answer: Its dTM is 0.9 K.

Question: With `COc1cc(N(C)c2ccnc3ccc(C(F)(F)F)cc23)cc(OC)c1OC` as the molecule, how does the % binding [2] read?
Answer: The % binding was 74%.

Question: How did the % of inhibition [3] turn out when `Cc1ccc(-c2ccc3c(ccc4sc5c(c43)NC[C@@H](C)NC5=O)n2)cn1` was run?
Answer: The % of inhibition was -11%.

Question: `CN(C)CCOc1ccc(-c2nc(-c3ccncc3)c(-c3ccc4c(c3)CC/C4=N\O)[nH]2)cc1` was tested. Which % of control [4] did it give?
Answer: The % of control was 99%.

Question: For `Nc1cnc(N2CCc3cc(S(=O)(=O)Nc4c(F)cc(Cl)cc4F)cc(N4CCCC4=O)c32)nc1` [TP-020n], which % of control [5] is on record?
Answer: Its % of control is 98%.

Question: What does the source list for `O=C(NOC[C@H](O)CO)c1ccc(F)c(F)c1Nc1ccc(I)cc1F`?
Answer: % of control [6]: 100%; % of control [7]: 98%; % of control [8]: 72%

Question: Which % of control [9] does the source give for `CNC(=O)Nc1ccc(-c2nc(N3CC4CCC(C3)O4)c3cnn(C4CCC5(CC4)OCCO5)c3n2)cc1` here?
Answer: The % of control was 70%.

Question: Which % of control ([10]; at 1 µM) does the source give for `C=CC(=O)Nc1cc(-n2c(=O)ccc3cnc4ccc(-c5ccc(NS(C)(=O)=O)cc5)cc4c32)ccc1C` here?
Answer: The % of control was 100%.

Question: What about the % of control ([10]; at 10 µM) of the same molecule?
Answer: The % of control was 66%.

Question: With `N#Cc1cccc(-c2c[nH]c3ncnc(N4CCOCC4)c23)c1` as the molecule, how does the % of inhibition [11] read?
Answer: Its % of inhibition is 10%.
